Measured values from patent publication US9475789B2, “Use of polyenylpyrrole derivatives for treating inflammation” (WELLHEAD BIOLOGICAL TECHNOLOGY CORP., priority 2014, dated 2016).

How the values were obtained:
NF-κB p65 = NF-κB p65 nuclear translocation ELISA, J774A.1 macrophages; assay type: cell-based, murine; conditions: compound 1h 10-40 μM, LPS 20 min
Procedure: (A) RAW 264.7 macrophages (5×10^5/ml) or (B) J774A.1 macrophages (5×10^5/ml) were incubated with compound 1h or DMSO for 30 min followed by LPS (1 μg/ml) stimulating for 20 min, then the phosphorylation levels of IKK-α and IκB-α and total IκB-α protein level were analyzed by Western blot. (C) RAW 264.7 macrophages (5×10^5/ml) or (D) J774A.1 macrophages (5×10^5/ml) were incubated with compound 1h (10-40 μM) or DMSO for 30 min followed by LPS (1 μg/ml) stimulating for 20 min, then the nuclear translocation of NF-κB were analyzed by ELISA. (E) RAW-Blue™ cells (5×10^5/ml) were incubated with compound 1h (2.5-40 μM) or DMSO for 30 min followed by LPS (1 μg/ml) stimulating for 24 h, then the SEAP activity was measured by QUANTI-Blue™. […] In (C), (D), and (E), the data are expressed as the mean±SD for three separate experiments. *, **, and *** indicate a significant difference at the level of p<0.05, p<0.01, and p<0.001 respectively compared to LPS group.
Nuclear protein from RAW 264.7 and J774A.1 cells were extracted using a Nuclear Extract Kit (Active Motif) according to the manufacturer's instructions and nuclear NF-κB p65 activation quantified using an ELISA-based TransAM NF-κB kit (Active Motif, Tokyo, Japan) according to the manufacturer's protocol by reading the absorbance with a microplate absorbance reader (Bio-Rad Laboratories, Inc) at 450 nm with a reference wavelength of 655 nm.

ROS = experiment: Intracellular ROS production, ATP-activated J774A.1 macrophages; assay type: cell-based, murine
Procedure: In (A), J774A.1 macrophages (1×10^6/ml) were incubated with LPS (1 μg/ml) for 5.5 h and then incubated with compound 1 h ([…]), DPI (100 μM), or DMSO (vehicle) for 30 min followed by ATP (5 mM) stimulating for the indicated time, then ROS levels were measured by detection of the fluorescence intensity of the fluorophore carboxyl-DCF and expressed relative to those at time zero. In (B), J774A.1 macrophages (1×10^6/ml) were incubated with compound 1h (20 μM), DPI (100 μM), or DMSO (vehicle) for 30 min followed by LPS (1 μg/ml) stimulating for 5.5 h, then the cells were stimulated with ATP (5 mM) for the indicated time. The ROS levels were measured by detection of the fluorescence intensity of the fluorophore carboxyl-DCF and expressed relative to those at time zero. In (C), LPS-primed J774A.1 macrophages (1×10^6/ml) were incubated with compound 1h (20 μM) or DMSO (vehicle) for 30 min followed by ATP (5 mM) stimulating for 0-60 min, then the phosphorylation level of PKC-α was analyzed by Western blot.
Intracellular ROS stimulated by LPS was measured by detecting the fluorescence intensity of the 2′,7′-dichlorofluorescein diacetate (H2DCFDA) oxidized product (DCF) (Molecular Probes, Eugene, Oreg.). […]

[1] = test system: NLRP3 inflammasome-mediated IL-1β secretion; experiment: IL-1β ELISA, LPS+ATP-activated J774A.1 macrophages (NLRP3 inflammasome); assay type: cell-based, mouse
Procedure: (A) J774A.1 macrophages (1×10^6/ml) and (B) peritoneal macrophages (1×10^5/ml) were incubated with compound 1h for 30 min followed by LPS (1 μg/ml) stimulating for 5.5 h, then the cells were stimulated with ATP (5 mM) for an additional 30 min. The IL-1β in the culture medium was measured by ELISA and the expression of active caspase-1 (p10) was measured by Western blot. In (C) and (D), J774A.1 macrophages (1×10^6/ml) were incubated with LPS (1 μg/ml) for 5.5 h, then cells were incubated with compound 1h for 30 min followed by stimulating with ATP (5 mM) for an additional 30 min. The IL-1β and IL-6 in the culture medium were measured by ELISA and the expression of active caspase-1 (p10) was measured by Western blot. In (E), J774A.1 macrophages (1×10^6/ml) were incubated with compound 1h for 30 min followed by LPS (1 μg/ml) stimulating for 6 h. The expression of NLRP3 and proIL-1β were measured by Western blot.
The effects of tested samples on IL-1β, TNF-α and IL-6 production were measured by ELISA according to the manufacturer's instruction. […] Following the addition of 100 μl of stop solution to each well to stop the reaction, the absorbance of the plate was measured by a microplate reader at 450 nm wavelength.

[2] = LPS-primed J774A.1, compound 30 min before ATP stimulation

With `O=c1cc(O)cc(/C=C/C=C/C=C/C=C/c2[nH]ccc2Cl)o1` [Compound 1h] the NF-κB nuclear translocation (NF-κB p65) was “inhibited NF-κB nuclear translocation”, the “ATP-induced ROS production” value (ROS; J774A.1, compound 1h 20 μM added before LPS priming) was “inhibited ATP-induced ROS production significantly” and the “ATP-induced ROS production” value (ROS; [2]) was “reduces ATP-induced ROS production slightly”. The IL-1β secretion ([1]; J774A.1, compound before LPS and ATP treatment) was “significantly inhibited” and the IL-1β secretion [1, 2] was “inhibited IL-1β secretion”.
